# Assay results reported in the METLIN SMRT retention time set (Domingo-Almenara et al. 2019).
# Assay: gradient 5% acetonitrile 3 min, to 50% in 2 min, to 85% in 15 min, held 3 min, 100 µL/min
# Settings: column: Zorbax Extend-C18 2.1 x 50 mm; eluents: water / acetonitrile, 0.1% formic acid
# How it was run: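 Each retention time is based on an adduct peak selected computationally and verified by manual inspection. Measurements used HPLC–quadrupole time-of-flight mass spectrometry in positive and negative ionization mode on mixtures of ~100 pure standards. Chromatography ran on a Zorbax Extend-C18 column (2.1 × 50 mm, 1.8 μm) at 100 μL/min with water and acetonitrile, each containing 0.1% formic acid, and dead and dwell volumes of 40 μL and 900 μL.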
row,RP-LC retention time [s],Compound
1,630,Cc1nnc(NC(=O)Cn2cnc(-c3cccs3)cc2=O)s1
2,1070,Cc1ccc(Nc2c(-c3ccccc3O)nc3ccc(Br)cn23)cc1
3,1230,CCCCn1c(=O)c2ccccc2n(Cc2nc(-c3cccc(C)c3)no2)c1=O
4,689,COc1ccc(CCNC(=O)CSc2nc3sc(C)cc3c(=O)n2C)cc1OC
5,1090,Cc1ccccc1Oc1nccnc1N1CCC(C(=O)NC2CCCCCC2)CC1
6,741,COc1ccc(-c2noc(-c3cccn(CC(=O)Nc4ccc5c(c4)OCO5)c3=O)n2)cc1OC
7,731,CC(C)N1CCn2c(nc3cc(C(=O)NCc4ccccc4Br)ccc32)C1=O
8,641,CC1CCCCN1CCNC(=O)CCCn1c(=O)c2cccn2c2ccc(F)cc21 (centres undefined)
9,548,Cc1cc2[nH]c(=O)[nH]c2cc1S(=O)(=O)N1CCN(Cc2ccccc2)CC1
10,692,Cc1nnsc1C(=O)Nc1nnc(SCC(=O)NCc2ccco2)s1
11,720,NC(=O)c1cc(N2CCOCC2)nc2c(Cl)cccc12
12,695,COC(=O)c1ccccc1NC(=O)CSc1nccc(N2CCN(c3cccc(OC)c3)CC2)n1
13,708,COc1ccccc1Oc1ccc(S(=O)(=O)NCC(=O)O)cc1
14,813,Cc1ccccc1N1CCN(S(=O)(=O)c2cc3n(c2)CCCN(C)C3=O)CC1
15,925,COc1cccc(-c2noc(C3CCCN3C(=O)Nc3cccc(C)c3C)n2)c1 (centres undefined)
16,828,CCc1nc(NC(=O)Cn2nc3c(cc2=O)CCCCC3)sc1C
17,712,Cc1nc(N2CCCC(C(=O)NC(C)C)C2)c2c(C)c(C)oc2n1 (centres undefined)
18,659,CCOC(=O)CNC(=O)Nc1ccc2c(c1)oc(=O)n2CC
19,604,COC[C@@H]1CN(Cc2cn[nH]c2-c2ccccc2)C[C@H]1c1ccccn1
20,1260,CCc1ccc(OCC(=O)Nc2nc(-c3ccc(F)cc3F)cs2)cc1
21,711,Cc1cc(F)ccc1NC(=O)C1CCCN(c2cnc3nccnc3c2)C1 (centres undefined)
22,1220,O=S(=O)(c1ccccc1-c1nc(-c2ccccc2)no1)N1CCN(c2ccccc2)CC1

row,RP-LC retention time [s],Compound
1,677,O=C(c1noc2ccc(S(=O)(=O)N3CCN(c4ccccn4)CC3)cc12)N1CCCC1
2,628,Cc1cccc(C)c1NC(=O)CSc1ccc(N2CCCC(C(=O)NC3CC3)C2)nn1 (centres undefined)
3,634,CCN1CCN(c2c(S(=O)(=O)c3ccc(Cl)cc3)cnc3cc(OC)c(OC)cc23)CC1
4,947,Cc1c(S(=O)(=O)Nc2cccc(-c3ccc4ccccc4n3)c2)cnn1C(F)F
5,648,O=C(NCCCN1CCCCCC1)c1nnc(-c2ccc(S(=O)(=O)N3CCCC3)cc2)o1
6,696,CCN(CC)CCCNC(=O)c1nnc(-c2ccc(S(=O)(=O)N3CCC(C)CC3)cc2)o1
7,1180,CCc1nc(-n2cccc2)sc1C(=O)NC1CCC(C)CC1 (centres undefined)
8,769,O=C1CCCc2cc(S(=O)(=O)N3CCC(C(=O)NC4CCCCCC4)CC3)ccc2N1
9,908,CCOC(=O)C1=C(C)NC2=C(C(=O)C(C(=O)OC)C(C)C2)C1c1cccc(F)c1 (centres undefined)
10,585,Cc1cnc(CC2CCN(C(=O)C3CCC3)C2)n1C(C)C (centres undefined)
11,828,COc1ccccc1NC(=O)N1C[C@@H](F)C[C@H]1C(=O)N1CCc2ccccc2C1
12,637,CCOc1cc(=O)c(C(N)=O)nn1-c1ccc(F)c(F)c1
13,806,CCN(CC)C(=O)c1cc2c(s1)CCC(C(=O)N1CCC(C)CC1)C2 (centres undefined)
14,710,Cc1ccc(-c2cn3ccccc3n2)cc1NS(=O)(=O)c1ccc(Br)cc1
15,735,Cc1ccn2c(NC(=O)c3cc(Br)ccc3Cl)c(-c3ccccc3)nc2c1
16,1100,O=C(NCc1csc(-c2ccccc2)n1)C1CCN(S(=O)(=O)c2ccc3c(c2)CCCC3)CC1
17,661,O=C(c1ccco1)N1CCCn2cc(-c3ccc4c(c3)OCO4)nc21
18,589,O=C(NCc1cccs1)c1cccc2cnccc12
19,848,Cc1cc(C2CCCN2C(=O)Cc2c(F)cccc2Cl)on1 (centres undefined)
20,572,CCn1nccc1C(=O)N1C[C@@H]2CCCN3CCC[C@@H]([C@H]23)[C@H]1CCCC(=O)N1CCOCC1
21,591,Cn1nc(CO)c2c1CCN(C(=O)c1ccc3[nH]ccc3c1)C2
22,970,CCCCS(=O)(=O)N1CCc2nc(-c3ccccc3)ncc2C1

row,RP-LC retention time [s],Compound
1,868,O=C(NCCOc1ccccc1)c1cccc(Br)c1
2,560,O=C(Nc1ccccc1)N1CCc2nc[nH]c2C1
3,1040,CC(C)Oc1ccc(CNC(=O)C2=Cc3ccccc3OC2)cc1
4,884,COC(=O)c1cc2c(cc1NC(=O)c1cc(-c3cccnc3)nc3ccccc13)OCO2
5,707,CCCC(=O)Nc1ccc2c(c1)CN(C(=O)c1ccccc1Cl)C(C(=O)N(C)C)C2 (centres undefined)
6,989,Cc1cccc2c(=O)n(C3CCN(S(=O)(=O)c4ccc(F)c(F)c4)CC3)cnc12
7,1250,COc1ccc(/C=C/c2nc3sc4c(c3c(=O)o2)CCCC4)cc1OC
8,891,O=C(CCn1nnc2cc(-c3noc(C4CCCCC4)n3)ccc21)N1CCOCC1
9,819,O=C(NCc1cc(F)ccc1F)C1CCN(c2nnc(-c3ccccc3)o2)CC1
10,588,COCCNC(=O)C1CCN(c2cncnc2N2CCCCC2)CC1
11,626,COCCN1C(=O)c2cccn2CC1CNC(=O)c1ccnn1C (centres undefined)
12,798,CSc1cccc(NC(=O)C2CCCN(c3nnc(C)c4c(C)n(-c5ccccc5)nc34)C2)c1 (centres undefined)
13,647,CCNc1cc(N2CCC(CCC(=O)NCc3ccccc3)CC2)ncn1
14,929,CCS(=O)(=O)c1ncc(Cl)c(C(=O)Nc2ccc(Oc3ccccc3)cc2)n1
15,798,COc1cccc(C(=O)N2CCCn3nc(-c4cccs4)cc3C2)c1OC
16,1100,COc1ccc(NC(=O)Cn2nc(N3CCCC(C)C3)c3ccccc3c2=O)c(OC)c1 (centres undefined)
17,715,CC1(C(=O)Nc2ccc(F)c(F)c2)CCCCC(=O)N1 (centres undefined)
18,654,COc1cccc(NC(=O)N2CC(C)Oc3ccc(C)cc32)c1 (centres undefined)
19,1040,CC1(C)CC(=O)c2cn(-c3ccccc3)c(=O)c(C(=O)Nc3ccccc3F)c2C1
20,604,CCn1ccc(C(=O)N2CCn3c(nnc3-c3ccccc3)C2)n1
21,864,Cc1c(Cl)cccc1NC(=O)N1C[C@@H](F)C[C@H]1C(=O)N1CCc2ccccc2C1
22,741,Cc1ccc2[nH]cc(CCNC(=O)C3CCCN(c4nccc(C)n4)C3)c2c1 (centres undefined)

row,RP-LC retention time [s],Compound
1,668,Nc1cc(C2CCN(C(=O)NCCc3ccccc3)CC2)no1
2,850,O=C(NCCOc1ccc(F)cc1)NCc1ccc(Cl)cc1
3,944,COc1cc(OC)cc(-c2noc(Cn3cnc4c(oc5ccccc54)c3=O)n2)c1
4,976,CCOc1ccccc1NC(=O)N1CCC(n2c(C(F)(F)F)nc3cccnc32)CC1
5,599,CCOC(=O)c1c(NC(=O)CN2CCN(c3ccccn3)CC2)sc(C(N)=O)c1C
6,686,COCCn1cc(CCNC(=O)Nc2c(C)cccc2C)c2cccnc21
7,658,COc1cccc(CNC(=O)Nc2c(-c3ccc(C)cc3)nc3ccccn23)c1
8,814,Cn1c(=O)c(N2CCC(NC(=O)NCc3ccc(F)cc3)CC2)nc2ccccc21
9,899,O=C(c1cn2cc(Cl)ccc2n1)N1CCN(c2ccc(Cl)cc2)CC1
10,1110,O=C(Nc1cccc(Cl)c1)C1CCCN(c2nc3ccsc3c(=O)n2Cc2ccc(F)cc2)C1 (centres undefined)
11,630,CC(=O)Nc1ccc(CCc2nc3ccc(C(=O)NCCC(C)C)cc3[nH]2)cc1
12,734,Cc1cc(NC(=O)C(=O)NCC(O)c2cccc3ccccc23)no1 (centres undefined)
13,758,O=C(c1n[nH]c2c1CCCC2)N1CCN(c2ccc(=O)n(-c3ccc(Cl)cc3)n2)CC1
14,1030,CCCN(CCC)S(=O)(=O)c1ccc(Cl)c(OC)c1
15,695,O=C(c1ccc(Br)o1)N1CCN=C1N1CCN(c2ccccc2F)CC1
16,618,O=C(NC1CCN(c2cc(-c3cccs3)[nH]n2)C1)c1cccnc1 (centres undefined)
17,1100,CCOC(=O)c1sc(NC(=O)c2cccc([N+](=O)[O-])c2)nc1-c1ccccc1
18,984,O=S(=O)(c1cc(-c2nnc(-c3ccc(F)cc3)o2)ccc1Cl)N1CCOCC1
19,852,COc1cccc(OC)c1C(=O)Nc1cc2c(cc1S(=O)(=O)c1ccc(F)cc1)n(C)c(=O)n2C
20,725,CCN1CCCC1CNC(=O)c1nnc(-c2oc3c(C)cccc3c2C)o1 (centres undefined)

row,Compound,RP-LC retention time [s]
1,COc1ccc2c(c1)C1(CCN(C(=O)c3ccc(C)c(F)c3)C1)C(=O)N2 (centres undefined),745
2,CCOc1ccccc1-n1c(C(C)N2CCN(C(=O)COc3ccc(Cl)cc3)CC2)nc2ccccc2c1=O (centres undefined),802
3,CCC(C)NC(=O)c1c(O)c2sccc2n(Cc2ccccc2)c1=O (centres undefined),1310
